Test results: patent US6255073A (priority 1998, dated 2001)

B1: ovalbumin (protein, UniProt P01012 2-386, looked up)
Ovalbumin: GSIGAASMEFCFDVFKELKVHHANENIFYCPIAIMSALAMVYLGAKDSTRTQINKVVRFDKLPGFGDSIEAQCGTSVNVHSSLRDILNQITKPNDVYSFSLASRLYAEERYPILPEYLQCVKELYRGGLEPINFQTAADQARELINSWVESQTNGIIRNVLQPSSVDSQTAMVLVNAIVFKGLWEKAFKDEDTQAMPFRVTEQESKPVQMMYQIGLFRVASMASEKMKILELPFASGTMSMLVLLPDEVSGLEQLESIINFEKLTEWTSSNVMEERKIKVYLPRMKMEEKYNLTSVLMAMGITDVFSSSANLSGISSAESLKISQAVHAAHAEINEAGREVVGSAEAGVDAASVSEEFRADHPFLFCIKHIATNAVLFFGRCVSP
notes: ovalbumin (Sigma Chem. Co.) osmotically loaded into the cells

How the values were obtained:
[1] = target: T1, K^b sol (Mus musculus, UniProt P01901); assay: biochemical; conditions: read-out: dissociation rate constant
T1 sequence (P01901 22-305 limits assumed): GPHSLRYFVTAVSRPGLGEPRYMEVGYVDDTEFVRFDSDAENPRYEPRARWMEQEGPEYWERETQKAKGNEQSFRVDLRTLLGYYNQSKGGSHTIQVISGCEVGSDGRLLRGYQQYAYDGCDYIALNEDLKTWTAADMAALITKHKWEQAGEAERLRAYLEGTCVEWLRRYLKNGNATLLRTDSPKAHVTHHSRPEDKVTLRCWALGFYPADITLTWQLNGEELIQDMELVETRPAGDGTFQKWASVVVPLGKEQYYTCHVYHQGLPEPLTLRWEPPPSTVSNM
T1 sequence (P01887 21-119 partner): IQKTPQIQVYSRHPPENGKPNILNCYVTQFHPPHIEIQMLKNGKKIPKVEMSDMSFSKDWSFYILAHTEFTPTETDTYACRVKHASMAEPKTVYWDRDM

[2] = test system: B3/CD8 T-cell hybridoma; assay: Antigen presentation assay: K^b/β2 Drosophila cells cocultured with T-cell hybridoma B3/CD8, IL-2 by CTLL 3H thymidine incorporation; format: cell-based, murine; conditions: Drosophila cells transfected with K^b/β2; peptide added to medium or protein osmotically loaded
Protocol: Osmotic loading of SC2 and 3T3 cells with ovalbumin protein was carried out as described by Moore, et al., Cell 54: 777-785 (1988). The assay procedure is as follows. In a 96-well dish, 1×10^5 Drosophila cells (with or without peptide/protein loaded) or 3T3 cells were cocultured with 1×10^5 B3/CD8 T-cell hybridoma cells in 200 μl of RPMI media supplemented with 10 fetal bovine serum. After 24 hours of incubation, 100 μl of the supernatant from these cultures was added to 100 μl of RPMI containing 5,000 CTLL cells. The cells were cocultured for 24 hours at 37° C. when 1 μCi of ^3 H thymidine (Amersham) was added. After a further incubation of 15 hours at 37° C., the incorporation of radiolabel into the CTLL cells was determined by scintillation counting.
Assays conducted with murine MHC also verified that the insect cells are capable of loading peptide onto the Class I molecules. Cells expressing as few as 200-500 MHC molecules containing a particular antigen can be detected by a T-cell. […] Upon antigenic stimulation, B3/CD8 produces IL-2, measured by ^3 H thymidine incorporation in IL-2-dependenT-cell line CTLL (Gillis, et al., J. Immunol. 120: 2027 91978)). Thus, by measuring the amount of IL-2 produced, one can assay for T-cell recognition. […]

Molecule	koff [1] [s⁻¹]	T-cell recognition (IL-2 production by B3/CD8) [2]
CC(C)C[C@H](NC(=O)CNC(=O)[C@H](CCC(N)=O)NC(=O)[C@H](Cc1ccc(O)cc1)NC(=O)[C@@H](NC(=O)[C@H](Cc1ccc(O)cc1)NC(=O)CNC(=O)[C@@H](N)CCCNC(=N)N)C(C)C)C(=O)O [[^125 I]VSV-8]	0.00032	
B1		no recognition occurred
